Experimental findings from patent US20210008161A1, “METHODS AND COMPOSITIONS FOR IMPROVED HOMOLOGY DIRECTED REPAIR” (CRISPR THERAPEUTICS AG, priority 2019, published 2021) are described below.

The subject of assay [1] is HEK293 T cells. Description: GFP to BFP fluorescent reporter assay of HDR efficiency (AAVS1 locus). In kind it is cell-based, human. The protocol: The effect of DNA PK inhibition by Nu7441 correction of a DSB by the NHEJ pathway (e.g., introduce an indel at the DSB site) or HDR pathway (e.g., introduce a gene mutation encoded by a homology donor at the DSB site) was assessed using the reporter system described in Example 1. In this case gene-editing was evaluated in HEK293 T cells expressing GFP in the AAVS1 locus. To introduce a gene edit that converts GFP to BFP, cells were electroporated with ribonucleoprotein (RNP) comprised of Cas9 and gRNA1 (GFP target sequence identified by SEQ ID NO: 9; sgRNA spacer sequence identified by SEQ ID NO: 10) or gRNA2 (GFP target sequence identified by SEQ ID NO: 11; sgRNA spacer identified by SEQ ID NO: 12) that targets the GFP gene encoded in the AAVS1 locus. The cells were also transfected with ssODNs that encoded the gene correction necessary to convert GFP to BFP and homology arms complimentary to the sequence upstream and downstream of the target gene cut site. The efficiency of HDR repair was determined by measuring the level of cell BFP fluorescence. The efficiency of cutting (indel information) was monitored by TIDE analysis.
Shown in FIGS. 2A-2B is a comparison of HDR editing efficiency for cells treated with Nu7441, SCR7, or RS-1. Shown in FIG. 2A are cells were electroporated with RNP comprising Cas9 and gRNA1 (GFP target sequence shown in SEQ ID NO: 9; sgRNA spacer sequence identified by SEQ ID NO: 10). 2×10^5 cells were edited with 1 μM Cas9 and 1.5 μM gRNA1. The cells were transfected with four different ssODNs. These included ssODN 1067 (SEQ ID NO: 29) and ssODN 1069 (SEQ ID NO: 31) that are complimentary to the DNA strand containing the PAM sequence and ssODN 1068 (SEQ ID NO: 30) and ssODN 1070 (SEQ ID NO: 32) that are complimentary to the DNA strand not containing the PAM sequence. Cells were edited with 100 μM ssODN. A concentrated stock solution of each inhibitor was prepared in DMSO and diluted to a final concentration of 2.5 μM Nu7441, 1.25 μM SCR7, or 10 μM RS-1. HDR efficiency was compared relative to treatment with DMSO alone or to treatment with RNP-only.
Shown in FIG. 2B are cells were electroporated with RNP comprising Cas9 and gRNA2 (GFP target sequence shown in SEQ ID NO: 11; sgRNA spacer sequence shown in SEQ ID NO: 12). The cells were transfected with four different ssODNs. These included ssODN 1061 (SEQ ID NO: 33) and ssODN 1063 (SEQ ID NO: 35) that are complimentary to the DNA strand containing the PAM sequence and ssODN 1062 (SEQ ID NO: 34) and ssODN 1064 (SEQ ID NO: 36) that are complimentary to the DNA strand not containing the PAM sequence.
In general terms: A reporter such as luciferase makes a cellular process visible.

Assay [2] has as its system CD34-expressing LT-HSPCs. Description: HDR insertion of AAV-delivered GFP donor into HBB locus (GFP fluorescence). In kind it is cell-based, human. The protocol:
Frozen CD34-expressing LT-HSPCs derived from plerixafor (i.e., Mozibil®)+GCSF-dual mobilized peripheral blood obtained from healthy human donors were purchased from a commercial vendor. LT-HSPCs were maintained in culture media comprised of the reagents shown in Table 4 and were incubated at 37° C., 5% carbon dioxide, 4% oxygen. […] 2×10^5 cells were edited with 3 μg Cas9 and 3 μg gRNA. The target gene sequence (including target sequence with PAM), R02 spacer sequence, and R02 sgRNA sequence are identified in Table 3.
The cells were transfected with a dsDNA homology donor encoding GFP under a SFFV promoter (SEQ ID NO: 60) that was delivered by AAV (SEQ ID NO: 56). […] The HDR efficiency was determined by measuring the level of GFP fluorescence in the cells following electroporation. To determine the effect of 53BP1 inhibition on HDR efficiency, the 53BP1 inhibitor i53 was introduced as an mRNA-encoded protein to the cells during electroporation with Cas9/gRNA RNP and AAV DNA that serves as a donor for homology directed repair.
The effect of 53BP1 inhibition on HDR efficiency was compared to other mRNA-encoded proteins that inhibit the NHEJ pathway. These included the proteins CYREN1 and CYREN2 that inhibit Ku70/80, a heterodimer that binds DNA blunt ends to prevent processing of 3′ single-stranded DNA tails necessary for HDR repair. Cells were electroporated with RNP, an AAV-GFP homology donor and mRNA encoding either i53 (mRNA ORF shown in SEQ ID NO: 69), CYREN1, or CYREN2.
The effect of treatment with i53 and Nu7441 was compared for improving efficiency of HDR repair of the HBB locus. Cells were treated with different doses of Nu7441 or with mRNA encoding i53 (ORF shown by SEQ ID NO: 69).

Assay [3] has as its system human LT-HSPCs administered to cKit mice. Description: Erythroid cell enucleation in mouse bone marrow. In kind it is in vivo. Conditions: bone marrow 16 weeks; vs cells treated with RNP-only or AAV-only; FIG. 28. As to the method:
The functionality of the hematopoietic compartment in recipient mice was evaluated by measuring erythroid cell enucleation in bone marrow collected at 16 weeks post-engraftment. Mammalian erythrocytes extrude their nucleus prior to entering circulation. Human CD34-expressing LT-HSPCs are expected to differentiate into erythrocytes following engraftment, however the efficiency of enucleation can be low. Assessment of erythroid cell enucleation provides a measure of the ability of edited CD34 expressing cells to differentiate into erythroid cells compared to the unedited controls (i.e., ability to differentiate into functional cell types). Percent enucleation was compared for LT-HSPCs gene edited with Cas9/gRNA RNP and AAV given pre-EP or post-EP. […] Additionally, levels of enucleation were compared for LT-HSPCs gene edited with RNP+AAV in the presence of i53 or Nu7441.

The mark [4] stands for this setting: gRNA1, ssODN 1067-1070, 2.5 μM Nu7441, 1.25 μM SCR7 or 10 μM RS-1, vs DMSO, FIG. 2A.
Where [5] appears, read: 0.75 μg mRNA encoding i53, 5 μM Nu7441, control mRNA DM, FIG. 6C.

`O=c1cc(N2CCOCC2)oc2c(-c3cccc4c3sc3ccccc34)cccc12` [Nu7441]: the HDR efficiency entry in assay [1] (setting [4]) was “improved”; in assay [1] (gRNA2, ssODN 1061-1064, 2.5 μM Nu7441), “improved”; in assay [2] (setting [5]), “comparable increase”. Also, the “levels of erythroid cell enucleation” value in assay [3] is reported as “similar”.
On to `O=C(Nc1ccc(Br)cc1)c1ccc(Br)c(S(=O)(=O)NCc2ccccc2)c1` [RS-1], for which the HDR efficiency result in assay [1] (setting [4]) is recorded as “no improvement”.
With `O=c1[nH]c(=S)[nH]c(N=Cc2ccccc2)c1N=Cc1ccccc1` [SCR7], in assay [1] (setting [4]), the HDR efficiency result is reported as “no improvement”.
In the case of “i53: polypeptide inhibitor of 53BP1 (SEQ ID NO: 70), introduced as an mRNA-encoded protein (ORF SEQ ID NO: 69)”, the HDR efficiency entry in assay [2] (setting [5]) is on record as “comparable increase”; in assay [2] (mRNA-encoded proteins, i53 mRNA at 0.3 μg or 1 μg, over RNP+AAV-only, FIG. 6B) it was “increased”. In addition, the “HDR efficiency at each dose” value in assay [2] (0.5, 1, and 2 μg i53 mRNA, FIG. 6A) is “improved”. In addition, the “fold increase in HDR efficiency” value in assay [2] (GFP donor into HBB locus, mRNA encoding i53, over RNP+AAV-only, FIG. 6A) is recorded as “approximately 1.3 fold”. For the same molecule, the “levels of erythroid cell enucleation” value in assay [3] was “similar”.
